Source: EP3434287B1, “SHORT AND ULTRA-SHORT ANTIMICROBIAL LIPOPEPTIDES AND USE THEREOF” (Arta Peptidion S.r.l.s., priority 2017, dated 2019)
≈ marks a conversion by molar mass, not a printed value. Where “and” joins values, the source holds several entries; their conditions need not be identical. Identical values can stand only once. Like-named read-outs stand apart in the source and are kept apart here. Residues, ends and D or L forms follow the SMILES beside them. *: point of attachment. Myristoyl = CCCCCCCCCCCCCC(=O)*; Lauroyl = CCCCCCCCCCCC(=O)*; Octanoyl = CCCCCCCC(=O)*; Hexanoyl = CCCCCC(=O)*

How the values were obtained:
P.aeruginosa = type: cell-based, Pseudomonas aeruginosa ATCC 27853
Procedure: (§1) The antimicrobial activity of a lipopeptide can be determined using a method known in the art, for example, the broth-dilution method. Essentially, this method involves the growth of a microorganism in a liquid medium until it reaches the logarithmic phase. The test lipopeptide is serially diluted with growth medium for the test bacterium in the wells of a multiwell plate. An optimal concentration of the microorganism is added to the wells containing the serially diluted lipopeptide. The plate is incubated in a thermostat at a temperature of 37° C. for a time sufficient for the microorganism to grow. The growth of the microorganism, evaluated in comparison with a negative control (microorganism grown in the absence of the lipopeptide), is determined by detecting the absorbance of the solution containing the bacterium, for example, at 605 nm.
(§2) The minimum inhibitory concentration values (MICs) of the lipopeptides and of conventional antibiotics were determined by the broth microdilution susceptibility test following the guidelines of the NCCLS with mid-log phase cultures. Serial two-fold dilutions of each peptide were prepared (final volume of 50 ul) in 96-well polypropylene microtiter plates (UNIFO, Treviso, Italy) with MH broth for bacteria and RPMI-1640 for fungi. Each dilution series included con-trol wells without peptide. A total of 50 ul of the adjusted inoculum (approximately 5 × 10^5 cells/ml for bacteria or 5 × 10^4 cells/ml for fungi, in the appropriate medium) was added to each well. To evaluate the MIC, microtiter plates with bacteria were incubated at 37° C overnight, while those with fungi were incubated at 30° C for 48 h. The fatty acid tested were: C6 (hexanoic),C8 (octanoic),C10 (decanoic),C12 (lauric),C14 (mystiric).
as §2, with “control” for “con-trol”, “h.” for “h. The fatty acid tested were: C6 (hexanoic),C8 (octanoic),C10 (decanoic),C12 (lauric),C14 (mystiric).”

E.coli = type: cell-based, Escherichia coli ATCC 25922
Procedure: as §1, §2
as §2, with “control” for “con-trol”, “h.” for “h. The fatty acid tested were: C6 (hexanoic),C8 (octanoic),C10 (decanoic),C12 (lauric),C14 (mystiric).”

C.albicans SC5314 = assay: MIC against filamentous yeast strain, broth microdilution susceptibility test (NCCLS); type: cell-based; settings: RPMI-1640, 30° C for 48 h
Procedure: as §2, with “Italy)” for “Italy) with MH broth for bacteria and”, “h.” for “h. The fatty acid tested were: C6 (hexanoic),C8 (octanoic),C10 (decanoic),C12 (lauric),C14 (mystiric).”
(§3) This example was performed on two different strain of C.albicans. Both strain are human clinical isolate recovered from a patient with generalized candidiasis.

Cytotoxicity, MTT assay = type: cell-based; settings: human, A549 cells (lung cancer epithelial cell line), treated for 24-72 h, read-out: LC50 (the source's name)
Procedure: In the present invention, cytotoxicity of the lipopeptides against a epithelial cell line was also determined, for example, A549 cells (lung cancer). Cells were cultured in the presence and in the absence of peptides and the damage to the membrane was evaluated by the vital stain MTT.
The colorimetric 3-(4,5-dimethylthiazol-2-yl)-2,5-diphenyl tetrazolium bromide (MTT) assay was performed to assess the metabolic activity of cells plated into 96-well culture plates (10 5 cell/well) and treated with 0.5-25 µM of in complete medium for 24-72 h. At the end of treatments, fullerenes containing medium were removed and replaced with fresh medium; for the cytotoxic assay, 20 µL stock MTT (5 mg/mL) was added to each well, and cells were then incubated for 4 hr at 37 °C. The converted MTT dye was solubilised with acidic isopropanol (0.04 N HCl in absolute isopropanol). Absorbance was measured at 540 nm and 630 nm using a microplate reader (Automated Microplate Reader EL311, BIO-TEK Instruments, Vermont, USA). All measurements were done in triplicate and each experiment was repeated at least three times.

S.aureus = type: cell-based, S. aureus (ATCC 25923)
Procedure: as §1, §2
as §2, with “h.” for “h. The fatty acid tested were: C6 (hexanoic),C8 (octanoic),C10 (decanoic),C12 (lauric),C14 (mystiric).”

C. albicans ATCC 90029 = type: cell-based; settings: RPMI-1640, 30° C for 48 h
Procedure: as §2, with “Italy)” for “Italy) with MH broth for bacteria and”, “h.” for “h. The fatty acid tested were: C6 (hexanoic),C8 (octanoic),C10 (decanoic),C12 (lauric),C14 (mystiric).”
as §3

[1] = Example 1, effect of fatty acid length on RFWR, MH broth, 37° C overnight

CCCCCCCCCCCC(=O)N[C@@H](CCCNC(=N)N)C(=O)N[C@H](C(=O)N[C@@H](Cc1c[nH]c2ccccc12)C(=O)N[C@@H](CCCNC(=N)N)C(N)=O)[C@@H](C)CC [Lipopeptide 6, Lau-RIWR-NH2] (Lauroyl-RIWR-NH2)
MIC against P. aeruginosa (P.aeruginosa): 14.7 µM
MIC against P. aeruginosa (P.aeruginosa; MH broth, 37° C overnight): 12.5 µg/mL
MIC against E. coli (E.coli): 7.39 µM
MIC against C.albicans SC5314 strain (C.albicans SC5314): 12.5 µg/mL (≈ 15.4 µM)
CC50 (Cytotoxicity, MTT assay): 100 µg/mL and ~118 µM
MIC against S.aureus (S.aureus): 1.77 µM (≈ 1.44 µg/mL)

CCCCCCCCCCCC(=O)N[C@@H](CCCNC(=N)N)C(=O)N[C@@H](Cc1ccccc1)C(=O)N[C@@H](Cc1c[nH]c2ccccc12)C(=O)N[C@@H](CCCNC(=N)N)C(N)=O [Lipopeptide 3, Lau-RFWR-NH2] (Lauroyl-RFWR-NH2)
MIC against P. aeruginosa (P.aeruginosa): 14.7 µM
Bacteria (MIC, ug/ml) P.aeruginosa (P.aeruginosa; [1]): 50 µg/mL
MIC against P. aeruginosa (P.aeruginosa; MH broth, 37° C overnight): 12.5 µg/mL
MIC against E. coli (E.coli): 7.39 µM
Bacteria (MIC, ug/ml) E.coli (E.coli; [1]): 25 µg/mL
CC50 (Cytotoxicity, MTT assay): 100 µg/mL and ~118 µM
MIC against S.aureus (S.aureus): 3.66 µM (≈ 3.09 µg/mL)
Bacteria (MIC, ug/ml) S.aureus (S.aureus; [1]): 12.5 µg/mL

CCCCCCCCCCCCCC(=O)N[C@@H](CCCNC(=N)N)C(=O)N[C@@H](Cc1ccccc1)C(=O)N[C@@H](Cc1c[nH]c2ccccc12)C(=O)N[C@@H](CCCNC(=N)N)C(N)=O [Lipopeptide 5] (Myristoyl-RFWR-NH2)
Bacteria (MIC, ug/ml) P.aeruginosa (P.aeruginosa): 50 µg/mL
Bacteria (MIC, ug/ml) E.coli (E.coli): 25 µg/mL
Bacteria (MIC, ug/ml) S.aureus (S.aureus): 6.125 µg/mL

CCCCCCCCCCCC(=O)N[C@@H](CCCNC(=N)N)C(=O)N[C@@H](CCCNC(=N)N)C(=O)N[C@@H](Cc1ccccc1)C(=O)N[C@@H](Cc1c[nH]c2ccccc12)C(N)=O [Lipopeptide 14, Lau-RRFW-NH2] (Lauroyl-RRFW-NH2)
MIC against C.albicans SC5314 strain (C.albicans SC5314): 12.5 µg/mL (≈ 14.8 µM)

N=C(N)NCCC[C@H](NC(=O)[C@H](Cc1c[nH]c2ccccc12)NC(=O)[C@H](Cc1ccccc1)NC(=O)[C@@H](N)CCCNC(=N)N)C(N)=O [Lipopeptide 0] (H-RFWR-NH2; N-terminus and C-terminus assumed)
Bacteria (MIC, ug/ml) P.aeruginosa (P.aeruginosa): >400 µg/mL
Bacteria (MIC, ug/ml) E.coli (E.coli): >400 µg/mL
Bacteria (MIC, ug/ml) S.aureus (S.aureus): >400 µg/mL

CCCCCCCCCCCC(=O)N[C@@H](CCCNC(=N)N)C(=O)N[C@@H](Cc1ccccc1)C(=O)N[C@@H](Cc1c[nH]c2ccccc12)C(=O)N[C@@H](CCCNC(=N)N)C(N)=O [Lipopeptide 4] (Lauroyl-RFWR-NH2)
Bacteria (MIC, ug/ml) P.aeruginosa (P.aeruginosa): 12.5 µg/mL
Bacteria (MIC, ug/ml) E.coli (E.coli): 12.5 µg/mL
Bacteria (MIC, ug/ml) S.aureus (S.aureus): 3.125 µg/mL

CCCCCCCCCCCC(=O)N[C@@H](CCCNC(=N)N)C(=O)N[C@@H](CCCNC(=N)N)C(=O)N[C@@H](Cc1ccccc1)C(=O)N[C@@H](Cc1c[nH]c2ccccc12)C(N)=O [Lipopeptide 14] (Lauroyl-RRFW-NH2)
MIC against P. aeruginosa (P.aeruginosa): 14.7 µM
MIC against P. aeruginosa (P.aeruginosa; MH broth, 37° C overnight): 12.5 µg/mL
MIC against E. coli (E.coli): 14.7 µM
MIC against E. coli (E.coli; MH broth, 37° C overnight): 12.5 µg/mL

CCCCCCCC(=O)N[C@@H](CCCNC(=N)N)C(=O)N[C@@H](Cc1ccccc1)C(=O)N[C@@H](Cc1c[nH]c2ccccc12)C(=O)N[C@@H](CCCNC(=N)N)C(N)=O [Lipopeptide 2] (Octanoyl-RFWR-NH2)
Bacteria (MIC, ug/ml) P.aeruginosa (P.aeruginosa): 100 µg/mL
Bacteria (MIC, ug/ml) E.coli (E.coli): 100 µg/mL
Bacteria (MIC, ug/ml) S.aureus (S.aureus): 100 µg/mL

CCCCCCCCCCCC(=O)N[C@@H](CCCNC(=N)N)C(=O)N[C@@H](CCCNC(=N)N)C(=O)N[C@@H](Cc1ccccc1)C(=O)N[C@@H](Cc1c[nH]c2ccccc12)C(=O)N[C@@H](CCCNC(=N)N)C(=O)N[C@@H](CCCNC(=N)N)C(N)=O [Lipopeptide 16, Lau-RRFWRR-NH2] (Lauroyl-RRFWRR-NH2)
MIC against C. albicans ATCC strain (C. albicans ATCC 90029): 1.56 µg/mL (≈ 1.35 µM)

CCCCCCCCCCCC(=O)N[C@@H](CCCNC(=N)N)C(=O)N[C@@H](CCSC)C(=O)N[C@@H](Cc1c[nH]c2ccccc12)C(=O)N[C@@H](CCCNC(=N)N)C(N)=O [Lipopeptide 8, Lau-RMWR-NH2] (Lauroyl-RMWR-NH2)
MIC against C.albicans SC5314 strain (C.albicans SC5314): 12.5 µg/mL (≈ 15.1 µM)

CCCCCC(=O)N[C@@H](CCCNC(=N)N)C(=O)N[C@@H](Cc1ccccc1)C(=O)N[C@@H](Cc1c[nH]c2ccccc12)C(=O)N[C@@H](CCCNC(=N)N)C(N)=O [Lipopeptide 1] (Hexanoyl-RFWR-NH2)
Bacteria (MIC, ug/ml) P.aeruginosa (P.aeruginosa; [1]): >400 µg/mL
Bacteria (MIC, ug/ml) E.coli (E.coli; [1]): >400 µg/mL
Bacteria (MIC, ug/ml) S.aureus (S.aureus; [1]): >400 µg/mL
